Test results taken from PubChem BioAssay (NCI).
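1) Cells in 96-well plates. 2) Compound, 48 h, 5 concentrations. 3) Linear interpolation between surrounding doses. 4) Unreached endpoint = highest concentration. GI50 = concentration required for 50% inhibition of growth. TGI: concentration producing complete growth inhibition.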

Legend:
Experiment in all cases: NCI anticancer screen, dose series, 48 h
[1] = tested on: MDA-MB-231 breast
[2] = tested on: ACHN renal
[3] = tested on: RPMI-8226 leukemia
[4] = tested on: LOX IMVI melanoma
[5] = tested on: RXF 393 renal
[6] = tested on: COLO 205 colon
[7] = tested on: TK-10 renal
[8] = tested on: SF-295 CNS
[9] = tested on: MCF7 breast
[10] = tested on: M14 melanoma
[11] = tested on: NCI-H226 lung
[12] = tested on: HT29 colon
[13] = tested on: SF-539 CNS
[14] = tested on: T-47D breast
[15] = tested on: SF-268 CNS
[16] = tested on: OVCAR-3 ovarian
[17] = tested on: U251 CNS
[18] = tested on: BT-549 breast
[19] = tested on: SK-MEL-28 melanoma
[20] = tested on: HCT-116 colon
[21] = tested on: KM12 colon
[22] = tested on: HL-60(TB) leukemia
[23] = tested on: OVCAR-4 ovarian
[24] = tested on: SNB-75 CNS
[25] = tested on: UACC-62 melanoma
[26] = tested on: SR leukemia
[27] = tested on: DU-145 prostate
[28] = tested on: IGROV1 ovarian
[29] = tested on: NCI-H522 lung
[30] = tested on: A549 NSCLC
[31] = tested on: NCI-H460 lung
[32] = tested on: OVCAR-8 ovarian
[33] = tested on: SW-620 colon
[34] = tested on: HOP-92 NSCLC
[35] = tested on: NCI/ADR-RES ovarian
[36] = tested on: OVCAR-5 ovarian
[37] = tested on: SNB-19 CNS
[38] = tested on: SK-MEL-5 melanoma
[39] = tested on: SK-OV-3 ovarian
[40] = tested on: HCC-2998 colon
[41] = tested on: HS 578T breast
[42] = tested on: UACC-257 melanoma
[43] = tested on: UO-31 renal
[44] = tested on: MOLT-4 leukemia
[45] = tested on: A498 renal
[46] = tested on: PC-3 prostate
[47] = tested on: MDA-MB-435
[48] = tested on: SK-MEL-2 melanoma
[49] = tested on: HCT-15 colon
[50] = tested on: MALME-3M melanoma
[51] = tested on: SN12C renal
[52] = tested on: CAKI-1 renal
[53] = tested on: K-562 leukemia
[54] = tested on: 786-0 renal
[55] = tested on: CCRF-CEM leukemia
[56] = tested on: EKVX NSCLC
[57] = tested on: HOP-62 NSCLC

CNC(=O)c1cc(-n2ccc3cc(NC(=O)Nc4ccc(N5CCOCC5)c(C(F)(F)F)c4)ccc32)ccn1
GI50 [1]: 17.9 µM
TGI [1]: > 33.3 µM
GI50 [2]: 5.69 µM
TGI [2]: > 33.3 µM
GI50 [3]: 1.04 µM
TGI [3]: 3.11 µM
GI50 [4]: 0.251 µM
TGI [4]: > 33.3 µM
GI50 [5]: 0.595 µM
TGI [5]: 1.62 µM
GI50 [6]: 2.09 µM
TGI [6]: > 33.3 µM
GI50 [7]: 27.6 µM
TGI [7]: > 33.3 µM
GI50 [8]: 0.938 µM
TGI [8]: 3.24 µM
GI50 [9]: 1.7 µM
TGI [9]: > 33.3 µM
GI50 [10]: 3.11 µM
TGI [10]: > 33.3 µM
GI50 [11]: 3.69 µM
TGI [11]: > 33.3 µM
GI50 [12]: 2.01 µM
TGI [12]: > 33.3 µM
GI50 [13]: 1.41 µM
TGI [13]: > 33.3 µM
GI50 [14]: 0.907 µM
TGI [14]: 15.5 µM
GI50 [15]: 27.2 µM
TGI [15]: > 33.3 µM
GI50 [16]: 6.48 µM
TGI [16]: > 33.3 µM
GI50 [17]: 3.23 µM
TGI [17]: > 33.3 µM
GI50 [18]: 1.27 µM
TGI [18]: 8.9 µM
GI50 [19]: 11.7 µM
TGI [19]: > 33.3 µM
GI50 [20]: 2.09 µM
TGI [20]: > 33.3 µM
GI50 [21]: 0.159 µM
TGI [21]: > 33.3 µM
GI50 [22]: 1.62 µM
TGI [22]: > 33.3 µM
GI50 [23]: 7.76 µM
TGI [23]: > 33.3 µM
GI50 [24]: 6.38 µM
TGI [24]: > 33.3 µM
GI50 [25]: 1.27 µM
TGI [25]: 14.7 µM
GI50 [26]: 1.88 µM
TGI [26]: > 33.3 µM
GI50 [27]: 10.4 µM
TGI [27]: > 33.3 µM
GI50 [28]: 3.87 µM
TGI [28]: > 33.3 µM
GI50 [29]: 2.9 µM
TGI [29]: > 33.3 µM
GI50 [30]: 5.15 µM
TGI [30]: > 33.3 µM
GI50 [31]: 4.39 µM
TGI [31]: > 33.3 µM
GI50 [32]: 4.5 µM
TGI [32]: > 33.3 µM
GI50 [33]: 8.36 µM
TGI [33]: > 33.3 µM
GI50 [34]: 2.11 µM
TGI [34]: > 33.3 µM
GI50 [35]: 7.51 µM
TGI [35]: > 33.3 µM
GI50 [36]: 14.6 µM
TGI [36]: > 33.3 µM
GI50 [37]: 15 µM
TGI [37]: > 33.3 µM
GI50 [38]: 1.32 µM
TGI [38]: 7.58 µM
GI50 [39]: 26.7 µM
TGI [39]: > 33.3 µM
GI50 [40]: 11.5 µM
TGI [40]: > 33.3 µM
GI50 [41]: 1.85 µM
TGI [41]: > 33.3 µM
GI50 [42]: 8.89 µM
TGI [42]: > 33.3 µM
GI50 [43]: 3.55 µM
TGI [43]: > 33.3 µM
GI50 [44]: 1.93 µM
TGI [44]: > 33.3 µM
GI50 [45]: > 33.3 µM
TGI [45]: > 33.3 µM
GI50 [46]: 1.31 µM
TGI [46]: > 33.3 µM
GI50 [47]: 5.73 µM
TGI [47]: > 33.3 µM
GI50 [48]: 11.3 µM
TGI [48]: > 33.3 µM
GI50 [49]: 1.93 µM
TGI [49]: > 33.3 µM
GI50 [50]: 3.89 µM
TGI [50]: > 33.3 µM
GI50 [51]: 9.21 µM
TGI [51]: > 33.3 µM
GI50 [52]: 10 µM
TGI [52]: > 33.3 µM
GI50 [53]: 1.24 µM
TGI [53]: > 33.3 µM
GI50 [54]: 2.89 µM
TGI [54]: > 33.3 µM
GI50 [55]: 1.53 µM
TGI [55]: > 33.3 µM
GI50 [56]: > 33.3 µM
TGI [56]: > 33.3 µM
GI50 [57]: 1.52 µM
TGI [57]: 14.6 µM
